Drawing on publication PMC4770715, “LIM kinase inhibitors disrupt mitotic microtubule organization and impair tumor cell proliferation” (Oncotarget, 2015), this text covers remaining binding for 2 compounds.

Common to all, as to test: biochemical
What all share (parameters): KINOMEscan active-site competition binding, percent of control (100 = no competition)
Holding throughout (conditions): competition binding, percent control

In test [1] the target is ACVR1 (Homo sapiens, UniProt Q04771).
Test [2] has as its target BRSK2 (Homo sapiens, UniProt Q8IWQ3).
In test [3] the target is CAMK1 (Homo sapiens, UniProt Q14012).
Test [4] concerns the target T1, CDC2L2 (Homo sapiens, UniProt Q9UQ88).
T1 construct: gene CDK11A

Test [5] addresses CSNK1D (Homo sapiens, UniProt P48730).
The target in test [6] is CSNK1E (Homo sapiens, UniProt P49674).
Test [7] addresses CSNK2A1 (Homo sapiens, UniProt P68400).
Test [8] has as its target FGFR2 (Homo sapiens, UniProt P21802).
Test [9] deals with FLT4 (Homo sapiens, UniProt P35916).
Test [10] addresses GRK1 (Homo sapiens, UniProt Q15835).
Test [11] has as its target GSK3A (Homo sapiens, UniProt P49840).
Test [12] has as its target KIT(V559D) (Homo sapiens, UniProt P10721, V559D).
Test [13] has as its target LCK (Homo sapiens, UniProt P06239).
The target of test [14] is MAP3K1 (Homo sapiens, UniProt Q13233).
Test [15] concerns the target T2, NIM1 (Homo sapiens, UniProt Q8IY84).
T2 construct: gene NIM1K

Test [16] addresses PIK3CA(E545K) (Homo sapiens, UniProt P42336, E545K).
Test [17] has as its target PIK3CA(I800L) (Homo sapiens, UniProt P42336, I800L).
Test [18] addresses T3, PIK4CB (Homo sapiens, UniProt Q9UBF8).
T3 construct: gene PI4KB

Test [19] deals with PKMYT1 (Homo sapiens, UniProt Q99640).
In test [20] the target is RIOK1 (Homo sapiens, UniProt Q9BRS2).
Test [21] addresses T4, RSK1(Kin.Dom.1-N-terminal) (Homo sapiens, UniProt Q15418).
T4 construct: gene RPS6KA1; Kin.Dom.1-N-terminal

Test [22] has as its target WEE2 (Homo sapiens, UniProt P0C1S8).
The target of test [23] is T5, YSK1 (Homo sapiens, UniProt O00506).
T5 construct: gene STK25

Sequence of BRSK2 (Q8IWQ3 whole entry): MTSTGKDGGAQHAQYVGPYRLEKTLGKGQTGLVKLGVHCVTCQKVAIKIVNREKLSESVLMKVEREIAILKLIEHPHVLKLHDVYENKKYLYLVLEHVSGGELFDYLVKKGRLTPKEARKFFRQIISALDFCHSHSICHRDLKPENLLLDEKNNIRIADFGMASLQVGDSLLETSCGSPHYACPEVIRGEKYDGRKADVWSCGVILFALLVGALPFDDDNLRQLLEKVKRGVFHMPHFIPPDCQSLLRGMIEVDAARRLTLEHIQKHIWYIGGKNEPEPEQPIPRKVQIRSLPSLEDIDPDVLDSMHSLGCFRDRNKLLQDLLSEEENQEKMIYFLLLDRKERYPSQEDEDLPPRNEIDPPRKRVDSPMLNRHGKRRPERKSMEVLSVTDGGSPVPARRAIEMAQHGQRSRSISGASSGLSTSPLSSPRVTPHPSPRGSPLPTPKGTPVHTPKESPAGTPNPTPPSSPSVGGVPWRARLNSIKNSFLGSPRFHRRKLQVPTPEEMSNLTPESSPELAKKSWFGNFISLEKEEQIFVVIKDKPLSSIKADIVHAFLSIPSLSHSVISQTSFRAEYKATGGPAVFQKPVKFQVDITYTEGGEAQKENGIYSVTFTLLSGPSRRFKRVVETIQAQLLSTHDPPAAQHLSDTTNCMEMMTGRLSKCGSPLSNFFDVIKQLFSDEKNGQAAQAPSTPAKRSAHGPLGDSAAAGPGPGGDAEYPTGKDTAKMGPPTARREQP
T1 sequence (Q9UQ88 whole entry): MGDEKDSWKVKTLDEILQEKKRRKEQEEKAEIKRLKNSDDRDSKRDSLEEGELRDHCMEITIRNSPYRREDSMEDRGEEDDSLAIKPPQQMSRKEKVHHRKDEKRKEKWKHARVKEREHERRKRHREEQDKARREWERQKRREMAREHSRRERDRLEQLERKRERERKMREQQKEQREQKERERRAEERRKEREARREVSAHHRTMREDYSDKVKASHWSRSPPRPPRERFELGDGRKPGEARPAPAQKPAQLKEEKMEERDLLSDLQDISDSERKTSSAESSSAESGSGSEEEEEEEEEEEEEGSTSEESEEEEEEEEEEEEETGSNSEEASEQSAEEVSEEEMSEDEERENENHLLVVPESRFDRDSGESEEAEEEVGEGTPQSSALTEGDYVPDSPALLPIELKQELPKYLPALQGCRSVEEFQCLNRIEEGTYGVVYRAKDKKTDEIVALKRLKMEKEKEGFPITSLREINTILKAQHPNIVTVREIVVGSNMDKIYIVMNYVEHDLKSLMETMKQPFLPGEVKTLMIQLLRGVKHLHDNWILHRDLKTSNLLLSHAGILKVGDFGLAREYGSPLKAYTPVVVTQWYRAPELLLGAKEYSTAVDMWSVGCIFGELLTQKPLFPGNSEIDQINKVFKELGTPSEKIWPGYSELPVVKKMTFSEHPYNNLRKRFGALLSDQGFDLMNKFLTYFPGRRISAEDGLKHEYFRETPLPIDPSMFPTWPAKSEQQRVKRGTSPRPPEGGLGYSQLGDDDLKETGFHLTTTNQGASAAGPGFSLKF
Sequence of PKMYT1 (Q99640 whole entry): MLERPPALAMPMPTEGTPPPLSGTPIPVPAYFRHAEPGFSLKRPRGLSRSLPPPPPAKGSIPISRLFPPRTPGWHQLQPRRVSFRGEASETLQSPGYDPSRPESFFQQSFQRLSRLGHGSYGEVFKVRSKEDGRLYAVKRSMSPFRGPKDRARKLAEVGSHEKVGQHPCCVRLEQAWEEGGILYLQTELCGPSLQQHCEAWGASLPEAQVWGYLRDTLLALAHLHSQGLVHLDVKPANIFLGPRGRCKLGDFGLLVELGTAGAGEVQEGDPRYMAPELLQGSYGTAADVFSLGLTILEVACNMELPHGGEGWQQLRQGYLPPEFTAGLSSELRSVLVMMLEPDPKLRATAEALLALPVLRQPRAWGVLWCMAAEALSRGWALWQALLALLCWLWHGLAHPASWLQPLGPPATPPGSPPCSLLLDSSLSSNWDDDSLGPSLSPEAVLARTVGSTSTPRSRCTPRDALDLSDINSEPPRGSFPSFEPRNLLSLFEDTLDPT
T2 sequence (Q8IY84 whole entry): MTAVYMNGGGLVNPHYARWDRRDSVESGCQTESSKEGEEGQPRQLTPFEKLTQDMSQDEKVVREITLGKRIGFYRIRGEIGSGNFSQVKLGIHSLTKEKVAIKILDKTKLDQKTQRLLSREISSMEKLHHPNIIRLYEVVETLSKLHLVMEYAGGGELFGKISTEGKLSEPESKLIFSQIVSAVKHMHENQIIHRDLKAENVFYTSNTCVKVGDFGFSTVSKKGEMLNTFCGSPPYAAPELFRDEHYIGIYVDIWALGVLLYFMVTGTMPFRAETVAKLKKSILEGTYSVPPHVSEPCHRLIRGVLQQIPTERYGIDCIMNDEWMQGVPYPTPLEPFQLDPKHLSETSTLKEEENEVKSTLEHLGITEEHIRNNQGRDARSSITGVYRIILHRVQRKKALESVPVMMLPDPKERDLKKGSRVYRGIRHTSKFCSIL
Sequence of CSNK1E (P49674 whole entry): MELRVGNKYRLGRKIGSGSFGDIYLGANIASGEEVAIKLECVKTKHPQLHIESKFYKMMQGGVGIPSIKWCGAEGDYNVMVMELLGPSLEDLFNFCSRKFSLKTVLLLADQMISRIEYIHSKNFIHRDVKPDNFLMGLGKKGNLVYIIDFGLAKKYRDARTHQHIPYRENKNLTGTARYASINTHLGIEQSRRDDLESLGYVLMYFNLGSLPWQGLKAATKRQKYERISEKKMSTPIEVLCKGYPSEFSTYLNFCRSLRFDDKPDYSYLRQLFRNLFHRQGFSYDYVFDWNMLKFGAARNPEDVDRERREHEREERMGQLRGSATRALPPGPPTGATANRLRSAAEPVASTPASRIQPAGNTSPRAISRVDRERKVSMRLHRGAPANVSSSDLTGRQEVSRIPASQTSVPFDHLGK
Sequence of LCK (P06239 whole entry): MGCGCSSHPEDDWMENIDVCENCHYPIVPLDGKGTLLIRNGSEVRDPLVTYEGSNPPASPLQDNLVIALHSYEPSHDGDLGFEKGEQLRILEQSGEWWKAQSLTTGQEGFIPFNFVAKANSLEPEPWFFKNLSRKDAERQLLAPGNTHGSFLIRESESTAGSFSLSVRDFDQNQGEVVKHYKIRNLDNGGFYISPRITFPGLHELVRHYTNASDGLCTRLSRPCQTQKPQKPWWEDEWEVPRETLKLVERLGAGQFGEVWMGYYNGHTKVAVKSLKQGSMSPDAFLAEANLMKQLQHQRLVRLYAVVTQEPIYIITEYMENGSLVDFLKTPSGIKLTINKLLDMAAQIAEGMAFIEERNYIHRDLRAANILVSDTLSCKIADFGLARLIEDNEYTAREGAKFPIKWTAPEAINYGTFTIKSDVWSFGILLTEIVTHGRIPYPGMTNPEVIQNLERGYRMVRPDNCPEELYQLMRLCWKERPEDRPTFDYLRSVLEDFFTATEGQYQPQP
Sequence of GSK3A (P49840 whole entry): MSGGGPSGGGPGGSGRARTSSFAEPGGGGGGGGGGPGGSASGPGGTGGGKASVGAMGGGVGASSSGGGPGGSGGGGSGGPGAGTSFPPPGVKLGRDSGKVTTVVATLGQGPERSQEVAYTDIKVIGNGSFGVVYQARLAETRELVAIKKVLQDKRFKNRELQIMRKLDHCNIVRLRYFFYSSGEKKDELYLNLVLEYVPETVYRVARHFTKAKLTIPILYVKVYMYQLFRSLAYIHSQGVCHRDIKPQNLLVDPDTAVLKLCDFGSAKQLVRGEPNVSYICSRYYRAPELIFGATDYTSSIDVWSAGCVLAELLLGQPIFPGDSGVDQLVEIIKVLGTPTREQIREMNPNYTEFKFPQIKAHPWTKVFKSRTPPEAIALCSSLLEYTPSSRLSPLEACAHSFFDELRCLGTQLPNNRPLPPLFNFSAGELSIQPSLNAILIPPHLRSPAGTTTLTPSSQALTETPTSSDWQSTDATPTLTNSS
Sequence of KIT(V559D) (P10721 whole entry V559D): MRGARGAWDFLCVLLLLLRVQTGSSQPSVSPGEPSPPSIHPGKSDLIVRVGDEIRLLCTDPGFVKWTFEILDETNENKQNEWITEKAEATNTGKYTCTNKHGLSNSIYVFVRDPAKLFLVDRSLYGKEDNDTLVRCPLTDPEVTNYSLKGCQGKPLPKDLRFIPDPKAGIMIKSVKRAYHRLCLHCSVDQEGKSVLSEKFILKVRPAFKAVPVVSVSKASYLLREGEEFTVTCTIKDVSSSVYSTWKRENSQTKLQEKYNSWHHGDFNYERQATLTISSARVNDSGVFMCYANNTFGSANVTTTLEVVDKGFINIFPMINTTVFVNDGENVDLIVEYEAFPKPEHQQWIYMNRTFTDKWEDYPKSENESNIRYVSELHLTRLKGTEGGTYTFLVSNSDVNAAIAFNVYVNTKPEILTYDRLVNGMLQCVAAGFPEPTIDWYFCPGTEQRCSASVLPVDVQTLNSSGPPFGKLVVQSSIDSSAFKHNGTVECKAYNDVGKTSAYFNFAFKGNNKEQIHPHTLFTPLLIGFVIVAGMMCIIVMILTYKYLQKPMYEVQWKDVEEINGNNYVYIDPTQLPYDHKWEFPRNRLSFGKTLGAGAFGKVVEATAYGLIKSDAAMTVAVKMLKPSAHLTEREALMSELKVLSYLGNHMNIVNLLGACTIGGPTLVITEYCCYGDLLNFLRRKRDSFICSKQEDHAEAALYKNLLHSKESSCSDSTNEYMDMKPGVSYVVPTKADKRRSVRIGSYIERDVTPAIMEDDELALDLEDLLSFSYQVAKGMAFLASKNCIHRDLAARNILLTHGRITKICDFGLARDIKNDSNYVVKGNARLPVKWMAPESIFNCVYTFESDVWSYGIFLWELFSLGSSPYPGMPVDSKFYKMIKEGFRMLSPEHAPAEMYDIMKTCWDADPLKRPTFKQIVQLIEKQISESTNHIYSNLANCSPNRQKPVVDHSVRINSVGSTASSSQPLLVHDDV

In the case of `COc1ccc(-c2cnccc2-c2cnc(NC(=O)C(C)C)s2)c(C(F)(F)F)c1` [CRT0105446, N-{5-[3-(4-Methoxy-2-trifluoromethyl-phenyl)-pyridin-4-yl]-hiazol-2-yl}-isobutyramide], the remaining binding at 10 µM was determined as 100% in test [1]; 59% in test [2]; 62% in [3]; 59% in [4]; 27% in test [5]; 42% in test [6]. For the same compound, the remaining binding at 10 µM in [7] was 95%; in test [8], 100%; in test [9], 61%; in test [10], 70%; in [11], 56%; in test [12], 39%. Further, the remaining binding at 10 µM in test [13] is 100%; in test [14], 88%; in [15], 100%; in [16] it was 97%; in [17] it was 100%; in [18], 80%. Further, the remaining binding at 10 µM stood at 100% in test [19]; 97% in test [20]; 56% in test [21]; 100% in test [22]; 100% in [23].

`Cc1ccc(-c2cnccc2-c2cnc(Nc3ccc(O)cc3)s2)c(Cl)c1` [CRT0105950, 4-{5-[3-(2-Chloro-4-methyl-phenyl)-pyridin-4-yl]-thiazol-2-ylamino}-phenol]: the remaining binding at 10 µM stood at 52% in [1]; 33% in test [2]; 9.4% in [3]; 89% in [4]; 6.1% in test [5]; 11% in test [6]. Also, the remaining binding at 10 µM in test [7] was 60%; in test [8], 17%; in [9], 26%; in [10], 59%; in [11], 32%; in test [12] it was 0.75%. Moreover, the remaining binding at 10 µM in test [13] amounted to 20%; in test [14], 71%; in [15], 100%; in [16], 100%; in test [17] it was 100%; in test [18], 2.9%. In addition, the remaining binding at 10 µM worked out at 100% in test [19]; 65% in test [20]; 0.05% in test [21]; 100% in test [22]; 22% in test [23].
